Tests used:
[1] = Rat Cantharidin Screen (topical anti-inflammatory activity); assay type: in vivo; details: 72 hrs
Procedure: Compounds were tested for topical anti-inflammatory activity in a cantharidin rat ear screen, by a method described by A. Boris et al, [J. Invest. Dermatol. 68, 161 (1977)].
Cantharidin (450 μg) in a suitable solvent, such as methanol or tetrahydrofuran applied topically to one rat ear, causes severe inflammation giving approximately double the normal weight at 72 hrs. compared to the other, untreated ear. The test compounds were applied simultaneously with cantharidin in tetrahydrofuran.

[2] = Mouse Oxazolone Screen (topical anti-inflammatory activity); assay type: in vivo; details: 24 hr after challenge; for inhibition in vivo at 200 µg/ear: 200 μg/ear; for inhibition in vivo at 100 µg/ear: 100 μg/ear
Procedure: Compounds were tested for topical anti-inflammatory activity in a mouse oxazolone screen, by a method modified from that of Dietrich and Hess [Int. Arch. Allergy, 38, 246 (1970)].
Mice were sensitised with oxazolone (2 mg in EtOH) on a shaved area of the abdomen, and then challenged with oxazolone (100 μg) with or without the test compound on the left ear 5 days later.

[3] = Croton Oil Test (topical anti-inflammatory activity); assay type: in vivo, rat (Charles River Wistar); details: 1 mg/ear, 6 hours
Procedure: Compounds were tested for anti-inflammatory activity in a topical model based on that described by Fregnan G. B. and Torsello, A. L. (1975), Current Therapeutic Research 17, No. 4, 375-381. In outline the method is as follows:
Rats, Charles River Wistar Strain, female, 10/group. Weight range 200-240 g.
Irritant solution applied consists of 1% croton oil in tetrahydrofuran. 0.05 ml is placed on each ear, compound being included in the irritant solution on one ear. 6 hours later the ears are removed by cutting along the hairline and weighed.
-ve control--no irritant solution.
+ve control--irritant solution on both ears.

[4] = Carrageenin Test (paw volume); assay type: in vivo, rat (OLAC Wistar); details: 3 hours after carrageenin
Procedure: Groups of 8 OLAC Wistar male rats (140-170 g) received the Compounds orally 1 hour before 0.1 ml of 0.5% λ carrageenin injected into the right hind paw. Paw volumes were measured by mercury displacement 3 hours after carrageenin.

[5] = Quinone Quantal Writhing Test (analgesic activity); assay type: in vivo; details: 50 mg/kg po
Procedure: L. C. Hendershot and J. Fersaith, J. Pharmac. exp. Therap. 1959, 125, 237-240.
Compounds 1 and 2 had analgesic activity giving 10 and 50 percent inhibition respectively at a dose of 50 mg/kg po.

[6] = in mice; cited from earlier work

Cc1cc(Nc2ccc(Cl)cc2)c2[nH]ncc2n1 [Compound 14, 7-(4-Chloroanilino)-5-methyl-1H-pyrazolo[4,3-b]pyridine] gave an inhibition in vivo at 2 mg/ear [1] of 27%.
Compound Cc1ccc(Sc2cc(C)nc3cn[nH]c23)cc1 [Compound 3, 5-Methyl-7-(p-tolythio)-1H-pyrazolo(4,3-b)pyridine] has an inhibition in vivo at 200 µg/ear [2] of 37%.
With Cc1cc(Nc2ccccc2)c2nn(C)cc2n1 [Compound 5, 7-Anilino-2,5-dimethyl-2H-pyrazolo(4,3-b)pyridine] the inhibition in vivo at 2 mg/ear [1] was 44% and the inhibition in vivo at 200 µg/ear [2] was 63%.
In the case of Cc1cc(Nc2ccccc2)c2[nH]ncc2n1 [Compound 4, 7-Anilino-5-methyl-1H-pyrazolo(4,3-b)pyridine], the “% Inhibition” value [3] was 71.7%, the “% Inhibition” value ([4]; 75 mg/kg orally) was 40.2% and the inhibition in vivo at 1 mg/ear [1] was 42%. The inhibition in vivo at 200 µg/ear [2] was 81%.
Work on Cc1cc(Nc2ccc(C(C)(C)C)cc2)c2[nH]ncc2n1 [Compound 22, 5-Methyl-7-p-t-butylanilino-1H-pyrazolo[4,3-b]pyridine] yielded an inhibition in vivo at 1 mg/ear [1] of 68%.
For Cc1cc(N2CCCCC2)c2[nH]ncc2n1 [Compound 2, 5-Methyl-7-piperidino-1H-pyrazolo(4,3-b)pyridine], the “percent inhibition (analgesic activity)” value [5] was 50%, the “% Inhibition” value [3] was 34.8% and the “% Inhibition” value ([4]; 81 mg/kg orally) was 41.7%.
For CCCCNc1cc(C)nc2cn[nH]c12 [Compound 10, 7-n-Butylamino-5-methyl-1H-pyrazolo[4,3-b]pyridine], the inhibition in vivo at 0.5 mg/ear ([1]; 0.5 mg/ear) was 76% and the inhibition in vivo at 100 µg/ear [2] was 54%.
With c1ccc(Nc2ccnc3cn[nH]c23)cc1 [Compound 19, 7-Anilino-1H-pyrazolo[4,3-b]pyridine] the inhibition in vivo at 1 mg/ear [1] was 50%.
With c1cc2[nH]ncc2nc1N1CCCCC1 [Compound 1, 5-Piperidino-1H-pyrazolo(4,3-b)pyridine] the “percent inhibition (analgesic activity)” value [5] was 10%, the “% Inhibition” value [3] was 32.9% and the “% Inhibition” value ([4]; 88 mg/kg orally) was 34%.
With Cc1cc(NC2CCCCC2)c2[nH]ncc2n1 [Compound 11, 7-Cyclohexylamino-5-methyl-1H-pyrazolo[4,3-b]pyridine] the inhibition in vivo at 1 mg/ear [1] was 66%.
Compound Cc1cc(Nc2ccc(Cl)c(Cl)c2)c2[nH]ncc2n1 [Compound 24, 7-(3,4-Dichloroanilino)-5-methyl-1H-pyrazolo[4,3-b]pyridine] has an inhibition in vivo at 1 mg/ear [1] of 29%.
With Cc1cc(N(C)c2ccccc2)c2[nH]ncc2n1 [Compound 17, 7-(N-Methylanilino)-5-methyl-1H-pyrazolo[4,3-b]pyridine] the inhibition in vivo at 1 mg/ear [1] was 31% and the inhibition in vivo at 100 µg/ear [2] was 32%.
CCOc1cccc(Nc2cc(C)nc3cn[nH]c23)c1 [Compound 12, 7-(3-Ethoxyanilino)-5-methyl-1H-pyrazolo[4,3-b]pyridine] showed an inhibition in vivo at 1 mg/ear [1] of 41%.
For Cc1cc(Sc2ccccc2)c2[nH]ncc2n1 [Compound 9, 5-Methyl-7-phenylthio-1H-pyrazolo[4,3-b]pyridine], the inhibition in vivo at 1 mg/ear [1] was 40% and the inhibition in vivo at 100 µg/ear [2] was 61%.
In the case of Cc1cc(Nc2ccccc2C)c2[nH]ncc2n1 [Compound 8, 7-(2-Methylanilino)-5-methyl-1H-pyrazolo[4,3-b]pyridine], the inhibition in vivo at 0.9 mg/ear ([1]; 0.9 mg/ear) was 56% and the inhibition in vivo at 100 µg/ear [2] was 31%.
In the case of CC(=O)N(C(C)=O)c1cc(C)nc2c(C)n[nH]c12 [The compound wherein R is NAc2], the CNS antidepressant activity [6] is listed as “having CNS antidepressant activity”.
COc1ccc(Nc2cc(C)nc3cn[nH]c23)cc1 [Compound 15, 7-(4-Methoxyanilino)-5-methyl-1H-pyrazolo[4,3-b]pyridine] gave an inhibition in vivo at 1 mg/ear [1] of 41%.
With CCOc1ccc(Nc2cc(C)nc3cn[nH]c23)cc1 [Compound 7, 7-(4-Ethoxyanilino)-5-methyl-1H-pyrazolo[4,3-b]pyridine] the inhibition in vivo at 2 mg/ear [1] was 25% and the inhibition in vivo at 100 µg/ear [2] was 56%.

From patent US4559348A, “5- And/or 7-substituted pyrazolo-[4,3-b]-pyridines and their use as antiinflammatory agents” (Beecham Group, p.l.c., priority 1983, dated 1985)
